Patent publication US20250161223A1, “PHARMACEUTICAL FORMULATION” (Novartis AG, priority 2022, published 2025)

Experiments:
[1] = Chemical compatibility study of drug substance alone and binary mixtures (HPLC); format: physicochemical; settings: 4 weeks, 40° C./75% RH
Description: For HPLC in Table 1, the following conditions were applied: • Mobile Phase A: 0.1% Trifluoroacetic acid in Water. • Mobile Phase B: Water:Acetonitrile(50:950 v/v) • Column: Aquity HSS T3, • Column Dimension: Length—100 mm, Internal Diameter—2.1 mm, Particle size—1.8 μm • Flow Rate: 0.5 mL/min • Detection: 220 nm • Column Temperature: 40° C. • Auto sampler Temperature: 22° C. • Injection Volume: 4 μL • Run Time: 13.0 minutes • Program: Gradient […] All excipients except PVP-K30 may still be suitable for formulation when used in ratios more realistic in a final formulation (see Example 2).

[2] = Solid form conversion of slurry in water; format: physicochemical; settings: 30% w/w slurry in water; after 5 hrs
Excerpt: WG based core tablets can easily be converted into film-coated tablets with conventional coating operations. […] Looking at an unknown landscape of polymorphs for TNO155, WG was not pursued further.

C[C@@H]1OCC2(CCN(c3cnc(Sc4ccnc(N)c4Cl)c(N)n3)CC2)[C@@H]1N [TNO155-BBA, (3S,4S)-8-(6-amino-5-((2-amino-3-chloropyridin-4-yl)thio)pyrazin-2-yl)-3-methyl-2-oxa-8-azaspiro[4.5]decan-4-amine succinate (1:1) hemihydrate form HA]
Assay of active ingredient ([1]; closed): 98.6% | Assay of active ingredient ([1]; open): 98.7% | Solid form stability in slurry [2]: solid form conversion
